Values quoted from earlier work in patent US20080286202A1, “Method of Diagnosing Prodromal Forms of Diseases Associated With Amyloid Deposition” (priority 2004, published 2008).

Settings: in vivo

- f1 (free level in plasma): 0.06
SMILES: COc1ccccc1N1CCN(CCN(c2ccccn2)[11C](=O)C2CCCCC2)CC1 [[^11C]WAY-100635]
